# Legend:
# G6pc and Pck1 mRNA = G6pc and Pck1 mRNA (RT-qPCR) in primary mouse hepatocytes; type: cell-based; conditions: glucagon / forskolin
# Description: FIG. 32A-E. Related to FIG. 26—p38. FIG. 32A Mice were fed ad libitum or fasted for 12 h. Liver phospho-p38, total p38, p-MK2, total MK-2, and β-actin were assayed by immunoblot. FIG. 32B WT HCs were serum-depleted overnight and then incubated for 5 h with 100 nm glucagon in serum-free media with or without SB202190; or glucagon was added to HCs from P38a^fl/fl mice treated with adeno-LacZ (control) or adeno-Cre. RNA was assayed for G6pc and Pck1 mRNA (*P<0.05; mean±S.E.M.). FIG. 32C HCs from fasting WT and Camk2g^−/− mice were assayed for p-p38, total p38, and β-actin. FIG. 32D WT mice were injected i.p. with 12.5 mg kg^−1 body weight of p38 inhibitor (SB202190) or vehicle control. 12 h later, the mice were injected with an additional dose of SB202190 and fasted overnight. The livers were assayed for nuclear FoxO1, nucleophosmin, p-MK2, total MK-2, and β-actin. The correlation between nuclear FoxO1 and p-MK2 band intensities is shown in the graph. FIG. 32E Adeno-GFP-FoxO1-transduced HCs were serum-depleted overnight, and then incubated for 5 h in serum-free media with SB202190 or vehicle (Veh) control. FoxO1 localization was assessed by indirect immunofluorescence (Bar, 10 μm; *P<0.05; mean±S.E.M.).
# FIGS. 53A-B. MK-2 regulates hepatic FoxO1 subcellular localization and hepatic G6Pc and Pck1. FIG. 53A. Adeno-GFP-FoxO1-transduced HCs were serum-depleted overnight, and then incubated for 30 min in serum-free media with 2 uM MK-2 inhibitor or vehicle (Veh) control. FoxO1 localization was assessed by indirect immunofluorescence (Bar, […]; *P<0.005; mean±S.E.M.). FIG. 53B WT HCs were serum-depleted overnight and then incubated for 5 h with 100 nm glucagon in serum-free media with or without MK-2 inhibitor. RNA was assayed for G6pc and Pck1 mRNA (*P<0.005; mean±S.E.M.). MK-2 Inhibitor is from Calbiochem (cat#475864): 2-(2-Quinolin-3-ylpyridin-4-yl)-1,5,6,7-tetrahydro-4H-pyrrolo-[3,2-c]pyridin-4-one.
# FIG. 69. MK-2 inhibitor suppresses forskolin-induced Pck1 and G6Pc induction in primary hepatocytes. Primary hepatocytes from WT mice were serum-depleted overnight and then pre-treated with 300 nM MK-2 inhibitor (compound 28) or vehicle for 1 h. Cells were then treated with 2 μM forskolin in serum-free media with or without the inhibitor for 4 h. RNA was assayed for G6pc and Pck1 mRNA by RT-qPCR. *, P<0.0001.
# Primary mouse HCs were isolated from 8- to 12-week-old mice as described previously (Matsumoto et al., 2002). For most experiments, the HCs were serum-depleted overnight by incubation in medium containing 0.5% fetal calf serum and were then incubated for 5 h in serum-free media, with individual treatments noted in the figure legends. HCs were transduced with adenoviral constructs 12 h after plating, and experiments were conducted 24 h after transduction. Transfections with WT, 7A- and 9A-Foxo1 were carried out using jetPEI™-hepatocyte DNA transfection reagent (Polyplus-transfection, Inc.) according to manufacturer's instructions.
# Immunoblot and RT-qPCR assays were performed as previously described (Timmins et al., 2009). Total RNA was extracted from HCs using the RNeasy kit (Qiagen). cDNA was synthesized from 2 μg total RNA using oligo (dT) and Superscript II (Invitrogen). Nuclear extraction from liver was performed using the Nuclear Extraction Kit from Panomics according to the manufacturer's instructions. […] Whether their origin is alternative splicing or post-translational modification remains to be determined.
# CaMKII = type: cell-based, mouse
# Description: FIG. 1A. CaMKII enzyme activity was assayed in triplicate wells of primary mouse HCs stimulated with 100 nM glucagon (Gluc) or vehicle control (Veh) for the indicated times (*P<0.05 and **P<0.01 vs. Veh; mean±S.E.M.). FIGS. 1B-1J. Extracts of HCs or liver were probed for phospho-CaMKII, total CaMKII, and β-actin by immunoblot assay. FIG. 1B. HCs were incubated with […] glucagon for the indicated times; FIG. 1C. Glucagon was added to HCs that were pre-treated for 1 h with vehicle control (Veh) or 5 μM BAPTA-AM; FIG. 1D. Glucagon was added to HCs that were pre-treated with 0.5 μM xestospongin (XesC) or to HCs from Ip3r1fl/fl mice transduced with adeno-LacZ control or adeno-Cre (bar graph=Ip3r1 mRNA levels); FIG. 1E. Glucagon was added to HCs that were pre-treated for 1 h with vehicle control (Veh) or 10 μM H89. FIG. 1F. […] FIGS. 1G-1J. In vivo experiments. In FIG. 1G, mice were treated for 30 min with 200 μg kg−1 body weight of glucagon i.p., and in FIG. 1H, mice were pre-treated with 10 pmol g−1 xestospongin C or vehicle control i.p. 4 days prior to glucagon treatment. In FIGS. 1I-1J, mice were fed ad libitum or fasted for 12 h, or fasted for 12 h and then re-fed for 4 h.
# Total RNA was extracted from hepatocytes using the RNeasy kit (Qiagen). cDNA was synthesized from 2 μg total RNA using oligo (dT) and Superscript II (Invitrogen). Real-time qPCR analysis and western blotting were performed as previously described (Timmins et al., 2009). Nuclear extraction from liver was performed using the Nuclear Extraction Kit from Panomics according to the manufacturer's instructions.
# Immunoblot and RT-qPCR assays were performed as previously described (Timmins et al., 2009). Total RNA was extracted from HCs using the RNeasy kit (Qiagen). cDNA was synthesized from 2 μg total RNA using oligo (dT) and Superscript II (Invitrogen). Nuclear extraction from liver was performed using the Nuclear Extraction Kit from Panomics according to the manufacturer's instructions.
Compound,induction of the gluconeogenic program (G6pc and Pck1 mRNA),"glucagon-induced CaMKII phosphorylation (CaMKII; HCs pre-treated with inhibitor, then glucagon)",phospho-CaMKII (CaMKII; HCs treated with agonist)
C1CCC[C@H]2CCCN3CC[C@@H](CCCCCC[C@@H]4CCCN5CC[C@@H](CC1)O[C@@H]45)O[C@@H]23 [Xestospongin C],blocked,significant decrease,–
glucagon: hormone used to stimulate hepatocytes and mice,–,–,induced
